According to EP1996603B1, “LIPID A ANTAGONISTS WITH ANTI-SEPTIC SHOCK, ANTI-INFLAMMATORY, ANTI-ISCHEMIA AND ANALGESIC ACTIVITY” (Università Degli Studi Di Milano - Bicocca, priority 2006, dated 2007):

Experiments:
TLR9 = assay: TNFα production after stimulation with CpG (TLR9 selectivity); assay type: cell-based, Mouse; conditions: stimulation through CpG, recognized by TLR9
Procedure: (§1) • Figure 1. Antagonistic activity of compounds Ia, Ic and Id on lipid A-stimulated cytokine production in BMDC, BMØ and D1 cells. TNFα production was measured in the supernatants 24 h later. From the right: lipid A (0.5µM), cells treated with lipid A alone; DMSO: cells incubated in the presence of complete medium plus DMSO; inhibitor 50 µM, cells treated only with monosaccharides Ia, Ic and Id; other columns, lipid A + compounds […] at increasing doses. The data represent means and standard deviations of triplicate wells. This is a representative of three independent experiments. *, p < 0.05; **, p < 0.01; ***, p< 0.001. • Figure 2. TLR-4 selectivity of monosaccharide Id. […] IL-1β was measured in the supernatants by ELISA. […] Lower panels, TNFα production measured by ELISA 24 h after stimulation with CpG (selective for TLR-9) or PAM3Cys-SK4 (selective for TLR-2) in the presence of compound Id. […] The cells were then analyzed by FACS for the presence of annexin V and propidium iodide (PI) double positive cells. […] NF-kB activation was evaluated in the nuclear extract 2 h later and expressed as optical density (OD) at 450 nm. […] Effect of different doses of compound Id on carrageenan induced edema in mice measured 4h after the exposure and expressed as difference between the paw volume of treated paw versus the contralateral paw. […]

human TLR-4A = target: T1, human TLR-4A (Homo sapiens, UniProt O00206+Q9Y6Y9); assay: NF-kB activation in HEK-293 cells transfected with TLR-4, stimulated with lipid A; assay type: cell-based; conditions: TLR-4-transfected HEK 293; lipid A (0.5 µM) after pre-exposure to compound; measured 2 h later
T1 construct: host or cells: HEK-293 (HEK-293-hTLR-4A)
T1 sequence (O00206 24-839): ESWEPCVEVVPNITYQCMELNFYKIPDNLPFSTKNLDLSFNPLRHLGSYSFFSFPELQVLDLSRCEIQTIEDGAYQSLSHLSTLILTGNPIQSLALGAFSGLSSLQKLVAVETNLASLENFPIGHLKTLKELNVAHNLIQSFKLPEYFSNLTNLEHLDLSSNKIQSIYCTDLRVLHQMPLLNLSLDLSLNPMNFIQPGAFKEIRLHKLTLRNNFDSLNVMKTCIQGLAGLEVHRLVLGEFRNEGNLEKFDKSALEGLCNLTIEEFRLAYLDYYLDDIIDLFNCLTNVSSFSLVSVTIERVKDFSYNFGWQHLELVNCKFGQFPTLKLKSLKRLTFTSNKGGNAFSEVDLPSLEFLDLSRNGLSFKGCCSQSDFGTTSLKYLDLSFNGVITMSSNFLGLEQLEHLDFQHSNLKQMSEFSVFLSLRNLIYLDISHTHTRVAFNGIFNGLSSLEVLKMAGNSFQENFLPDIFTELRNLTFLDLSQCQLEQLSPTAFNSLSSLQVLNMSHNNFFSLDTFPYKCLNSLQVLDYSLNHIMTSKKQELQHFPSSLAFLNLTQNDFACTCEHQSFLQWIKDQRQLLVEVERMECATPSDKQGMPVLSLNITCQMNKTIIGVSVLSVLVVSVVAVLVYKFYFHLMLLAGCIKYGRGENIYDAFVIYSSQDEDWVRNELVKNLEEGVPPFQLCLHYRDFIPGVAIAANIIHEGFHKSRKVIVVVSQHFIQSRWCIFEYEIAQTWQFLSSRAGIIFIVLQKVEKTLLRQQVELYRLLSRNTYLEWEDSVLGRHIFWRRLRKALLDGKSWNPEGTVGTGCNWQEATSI
T1 sequence (Q9Y6Y9 17-160 limits assumed): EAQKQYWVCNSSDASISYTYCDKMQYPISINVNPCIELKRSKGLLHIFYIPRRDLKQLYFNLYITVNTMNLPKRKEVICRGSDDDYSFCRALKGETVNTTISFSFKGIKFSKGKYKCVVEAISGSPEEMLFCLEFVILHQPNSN
Procedure: as §1

[1] = test system: ischemia-induced EEG flattening; assay: Cerebral ischemia by bilateral carotid occlusion, EEG spectral power; assay type: in vivo, Mongolian gerbils (Meriones unguiculatus); conditions: 10 mg/kg i.p. 30 min before bilateral carotid occlusion; starting from 1 hour after recirculation
Procedure: After implanting EEG electrodes, the gerbils were divided into different groups on the basis of the assigned treatment. Their electroencephalogram (EEG) was recorded for 1 h a day, for three days, to determine the basal total and relative spectral power. The signals were recorded and processed for fast Fourier transform spectral analysis by means of PC software (PowerLab, AD Instruments, Pty, Ltd, Australia). EEG recordings were also made for seven days after ischemia. After basal EEG recordings, each gerbil was again lightly anaesthetised and 10-min. ischemia was induced by bilateral common carotid arteries occlusion. The ischemia was verified qualitatively on paper by the complete flattening of the EEG. A group of animals (sham-operated) underwent the same surgical procedure except that the carotid arteries were not clamped. Compound Id was i.p. administered to the animals at the dose of 10 mg/kg 30 minutes before ischemia induction.

neuropathic mice = assay: Neuropathic pain after sciatic nerve ligation (plantar test, Von Frey test); assay type: in vivo, mice C57BL/6J; conditions: i.p. 5 mg/kg once a day for one week starting the day after surgery
Procedure: Male mice C57BL/6J were anesthetized with sodium pentobarbital (65 mg/kg, i.p.) and submitted to surgery to induce neuropathic pain. […] Sham animals (sciatic exposure without ligation) were used as controls. The animal pain response was monitored before surgery, on day 7 (24 h after the last administration). Compound (Id) was administered i.p. at 5 mg/kg once a day starting the day after the surgery. Heat hypersensitivity was tested according to the Hargreaves' procedure using the plantar test (Ugo Basile, Varese, Italy). Mechanical allodynia was measured using the Von Frey test.

Question: `CCCCCCCCCCCCCCO[C@H]1[C@@H](OC)O[C@H](C[N+](C)(C)C2CCCC2)[C@@H](O)[C@@H]1OCCCCCCCCCCCCCC` [Compound Id, methyl 6-deoxy-6-N,N',N"-dimethylcyclopentylammonium-2,3-di-O-tetradecyl-α-D-glucopyranoside] was tested. Which TNFα production (TLR9) did it give?
Answer: Its TNFα production is “not inhibited”.

Question: What about the NF-kB activation (human TLR-4A) of the same compound?
Answer: The NF-kB activation was “able to significantly counteract the effect of lipid A”.

Question: And the “ischemia-induced EEG flattening” value [1]?
Answer: The value was “able to significantly antagonize the ischemia-induced EEG flattening”.

Question: And the mechanical allodynia (neuropathic mice; Von Frey test)?
Answer: The mechanical allodynia was “significant relief”.

Question: What about the thermal hyperalgesia (neuropathic mice; plantar test) of the same compound?
Answer: The thermal hyperalgesia was “significant relief”.
